Laboratory results taken from patent publication US20250144067A1, “PERSONALIZED STARVATION THERAPY FOR CANCER” (Faeth Therapeutics, Inc., priority 2021, published 2025).
Counter-ions that a name gives are not always drawn.

Key:
[1] = test system: NCI-H292 lung cancer cells; assay: FDA drug screening, complete media vs cholesterol-free media without statin (TABLE 1); type: cell-based, human
[2] = test system: NCI-H292 lung cancer cells; assay: FDA drug screening, complete media vs cholesterol-free media with simvastatin (TABLE 2); type: cell-based, human; settings: for Cholesterol-free media + simvastatin (0.04 μM) / Complete Media: NCI-H292 cells
[3] = Complete minus Cholesterol-free, >0 enhanced anti-cancer activity, about 0 neutral, <0 antagonist
[4] = NCI-H292 cells, cholesterol-free media without statin, FDA drug library screen
[5] = NCI-H292 cells, complete media, FDA drug library screen
[6] = cholesterol-free media with simvastatin 0.04 μM, FDA drug library screen (TABLE 2)
[7] = complete media, FDA drug library screen (TABLE 2)
[8] = complete media minus cholesterol-free media + simvastatin (0.04 μM), >0 enhanced anti-cancer activity, about 0 neutral, <0 antagonist
[9] = Complete minus Cholesterol-free, greater than 0 enhanced anti-cancer activity, about 0 neutral, below 0 antagonist
[10] = NCI-H292 cells, FDA drug library screen, cholesterol-free media without statin
[11] = NCI-H292 cells, FDA drug library screen, complete media
[12] = drug in cholesterol-free media with simvastatin 0.04 μM
[13] = complete media vs cholesterol-free media + simvastatin (0.04 μM), >0 enhanced anti-cancer activity, about 0 neutral, <0 antagonist
[14] = Complete minus Cholesterol-free, greater than 0 enhanced anti-cancer activity, about 0 neutral, below 0 antagonists
[15] = NCI-H292 cells in cholesterol-free media without statin
[16] = NCI-H292 cells in complete media
[17] = cholesterol-free media with simvastatin 0.04 μM, cell growth value in FDA drug screen
[18] = complete media, cell growth value in FDA drug screen
[19] = complete media minus cholesterol-free media + simvastatin, >0 enhanced anti-cancer activity, about 0 neutral, <0 antagonist
[20] = Complete minus Cholesterol-free, […]
[21] = NCI-H292 cells, cholesterol-free media without statin
[22] = FDA library drug in cholesterol-free media with simvastatin 0.04 μM
[23] = FDA library drug in complete media
[24] = complete media vs cholesterol-free media + simvastatin (0.04 μM), […]
[25] = complete vs cholesterol-free media, greater than 0 enhanced anti-cancer activity, about 0 neutral, below 0 antagonists
[26] = complete media minus cholesterol-free media + simvastatin, […]
[27] = FDA drug library screen, cholesterol-free media with simvastatin 0.04 μM
[28] = FDA drug library screen, complete media
[29] = complete vs cholesterol-free media, >0 enhanced anti-cancer activity, about 0 neutral, <0 antagonist

CC(=O)[C@]1(O)Cc2c(O)c3c(c(O)c2[C@@H](O[C@H]2C[C@H](N)[C@H](O)[C@H](C)O2)C1)C(=O)c1ccccc1C3=O [Idarubicin (hydrochloride)]
Difference [1, 3]: −0.01 | Cholesterol-free [1, 4]: −0.02296 | Complete [1, 5]: −0.02941 | Cholesterol-free media + simvastatin (0.04 μM) [2, 6]: 0.008408 | Complete Media [2, 7]: 0.002721 | Difference [2, 8]: −0.01

O=C1CCc2ccc(OCCCCN3CCN(c4cccc(Cl)c4Cl)CC3)cc2N1 [Aripiprazole]
Difference [1, 9]: −0.16 | Cholesterol-free [1, 10]: 0.9968 | Complete [1, 11]: 0.833 | Cholesterol-free media + simvastatin (0.04 μM) [2, 12]: 1.264 | Complete Media ([2]; drug in complete media): 1.028 | Difference [2, 13]: −0.24

Phentolamine (mesylate)
Difference [1, 14]: −0.51 | Cholesterol-free [1, 15]: 1.404 | Complete [1, 16]: 0.8982 | Cholesterol-free media + simvastatin (0.04 μM) [2, 6]: 0.9072 | Complete Media [2, 7]: 0.8992 | Difference [2, 8]: −0.01

N[C@H]1CONC1=O [L-Cycloserine]
Difference [1, 14]: −0.78 | Cholesterol-free [1, 15]: 1.458 | Complete [1, 16]: 0.6746 | Cholesterol-free media + simvastatin (0.04 μM) [2, 17]: 0.815 | Complete Media [2, 18]: 0.9066 | Difference [2, 19]: 0.09

NCCCC[C@H](N)C(=O)O [L-Lysine]
Difference [1, 20]: −0.24 | Cholesterol-free [1, 21]: 1.096 | Complete ([1]; NCI-H292 cells, complete media): 0.8592 | Cholesterol-free media + simvastatin (0.04 μM) [2, 22]: 1.021 | Complete Media [2, 23]: 0.7295 | Difference [2, 24]: −0.29

Diethylcarbamazine (citrate)
Cholesterol-free [1, 21]: 1.324 | Complete ([1]; NCI-H292 cells, complete media): 0.9451 | Difference [1, 25]: −0.38 | Cholesterol-free media + simvastatin (0.04 μM) [2, 17]: 0.703 | Complete Media [2, 18]: 0.7247 | Difference [2, 19]: 0.02

C=CC[C@]1(O)CC[C@H]2[C@@H]3CCC4=CCCC[C@@H]4[C@H]3CC[C@@]21C [Allylestrenol]
Difference [1, 20]: −0.56 | Cholesterol-free [1, 15]: 1.739 | Complete [1, 16]: 1.181 | Cholesterol-free media + simvastatin (0.04 μM) ([2]; cholesterol-free media with simvastatin 0.04 μM, […]): 1.288 | Complete Media ([2]; complete media, […]): 1.384 | Difference [2, 26]: 0.10

Cobimetinib (hemifumarate)
Difference [1, 3]: 0.01 | Cholesterol-free [1, 4]: 0.2855 | Complete [1, 5]: 0.2917 | Cholesterol-free media + simvastatin (0.04 μM) [2, 12]: 0.5239 | Complete Media ([2]; drug in complete media): 0.3203 | Difference [2, 13]: −0.20

Cc1ccccc1-n1c(CF)nc2ccc(N)cc2c1=O [Afloqualone]
Difference [1, 20]: 0.04 | Cholesterol-free [1, 4]: 1.063 | Complete [1, 5]: 1.104 | Cholesterol-free media + simvastatin (0.04 μM) [2, 27]: 1.16 | Complete Media [2, 28]: 1.332 | Difference [2, 26]: 0.17

Cc1ccc(/C(=C\CN2CCCC2)c2ccccn2)cc1 [Triprolidine (hydrochloride monohydrate)]
Difference [1, 9]: −0.13 | Cholesterol-free [1, 10]: 1.24 | Complete [1, 11]: 1.107 | Cholesterol-free media + simvastatin (0.04 μM) [2, 22]: 1.806 | Complete Media [2, 23]: 1.191 | Difference [2, 13]: −0.61

O=C(O)/C=C/c1ccc(O)c(O)c1 [Caffeic acid]
Difference [1, 3]: 0.01 | Cholesterol-free [1, 4]: 0.885 | Complete [1, 5]: 0.8915 | Cholesterol-free media + simvastatin (0.04 μM) [2, 27]: 0.9424 | Complete Media [2, 28]: 0.8032 | Difference [2, 13]: −0.14

Rucaparib (phosphate)
Cholesterol-free [1, 4]: 0.6538 | Complete [1, 5]: 0.9448 | Difference [1, 29]: 0.29 | Complete Media [2, 7]: 1.39 | Difference [2, 8]: −0.02

Cc1cc(/C=C/C#N)cc(C)c1Nc1ccnc(Nc2ccc(C#N)cc2)n1 [Rilpivirine]
Difference [1, 3]: 0.06 | Cholesterol-free [1, 4]: 0.8235 | Complete [1, 5]: 0.8865 | Cholesterol-free media + simvastatin (0.04 μM) [2, 22]: 1.859 | Complete Media [2, 23]: 1.359 | Difference [2, 13]: −0.50

CC(C)(CO)[C@H](O)C(=O)NCCCO [D-Panthenol]
Difference [1, 9]: −0.09 | Cholesterol-free [1, 10]: 1.002 | Complete [1, 11]: 0.9087 | Cholesterol-free media + simvastatin (0.04 μM) [2, 12]: 1.067 | Complete Media ([2]; drug in complete media): 0.817 | Difference [2, 13]: −0.25

CCOC(=O)OC(C)OC1=C(C(=O)Nc2ccccn2)N(C)S(=O)(=O)c2ccccc21 (centres unmarked) [Ampiroxicam]
Difference [1, 3]: −0.03 | Cholesterol-free [1, 4]: 0.9909 | Complete [1, 5]: 0.9596 | Cholesterol-free media + simvastatin (0.04 μM) [2, 17]: 1.311 | Complete Media [2, 18]: 1.382 | Difference [2, 19]: 0.07

CC[C@@H](CO)NCCN[C@@H](CC)CO [Ethambutol (dihydrochloride)]
Cholesterol-free [1, 4]: 0.4829 | Complete [1, 5]: 1.206 | Difference [1, 29]: 0.72 | Cholesterol-free media + simvastatin (0.04 μM) [2, 22]: 1.428 | Complete Media [2, 23]: 1.016 | Difference [2, 13]: −0.41

CNCCCN1c2ccccc2CCc2ccccc21 [Desipramine hydrochloride]
Difference [1, 3]: −0.04 | Cholesterol-free [1, 4]: 1.05 | Complete [1, 5]: 1.006 | Cholesterol-free media + simvastatin (0.04 μM) [2, 22]: 2.126 | Complete Media [2, 23]: 1.494 | Difference [2, 13]: −0.63

COc1cc(C(=O)NCc2ccc(OCCN(C)C)cc2)cc(OC)c1OC [Trimethobenzamide hydrochloride]
Cholesterol-free [1, 4]: 0.8254 | Complete [1, 5]: 0.9013 | Difference [1, 29]: 0.08 | Cholesterol-free media + simvastatin (0.04 μM) [2, 22]: 1.241 | Complete Media [2, 23]: 0.874 | Difference [2, 13]: −0.37

Nc1[nH]c(=O)ncc1F [Flucytosine]
Cholesterol-free [1, 21]: 1.247 | Complete ([1]; NCI-H292 cells, complete media): 0.8456 | Difference [1, 25]: −0.40 | Cholesterol-free media + simvastatin (0.04 μM) [2, 22]: 1.754 | Complete Media [2, 23]: 1.475 | Difference [2, 13]: −0.28

N[C@@H]1CN(c2c(F)cc3c(=O)c(C(=O)O)cn([C@@H]4C[C@@H]4F)c3c2Cl)CC12CC2.O [Sitafloxacin (hydrate)]
Cholesterol-free [1, 21]: 1.147 | Complete ([1]; NCI-H292 cells, complete media): 0.7079 | Difference ([1]; complete vs cholesterol-free media, […]): −0.44 | Cholesterol-free media + simvastatin (0.04 μM) [2, 22]: 1.043 | Complete Media [2, 23]: 0.7235 | Difference [2, 24]: −0.32

CN(C)c1ccc(O)c2c1C[C@H]1C[C@H]3[C@H](N(C)C)C(O)=C(C(N)=O)C(=O)[C@@]3(O)C(O)=C1C2=O [Minocycline (hydrochloride)]
Cholesterol-free [1, 4]: 0.8959 | Complete [1, 5]: 1.177 | Difference [1, 29]: 0.28 | Cholesterol-free media + simvastatin (0.04 μM) [2, 27]: 1.589 | Complete Media [2, 28]: 1.958 | Difference [2, 19]: 0.37

CCCCCOC(=O)Nc1nc(=O)n([C@@H]2O[C@H](C)[C@@H](O)[C@H]2O)cc1F [Capecitabine]
Difference [1, 3]: −0.20 | Cholesterol-free [1, 21]: 1.138 | Complete ([1]; NCI-H292 cells, complete media): 0.9364 | Cholesterol-free media + simvastatin (0.04 μM) [2, 22]: 1.236 | Complete Media [2, 23]: 0.648 | Difference [2, 13]: −0.59

O=C(O)[C@@H](S)[C@@H](S)C(=O)O [Succimer]
Cholesterol-free [1, 21]: 1.406 | Complete ([1]; NCI-H292 cells, complete media): 0.9576 | Difference [1, 25]: −0.45 | Cholesterol-free media + simvastatin (0.04 μM) [2, 12]: 1.252 | Complete Media ([2]; drug in complete media): 1.035 | Difference [2, 13]: −0.22
